Test results: PubChem BioAssay AID1963442 (Molecular Pharmacology Branch, DTP, NCI, 2024)

Test system: MPNST complex spheroid with HUVEC/MSC, growth, % test/control
Assay: Anticancer human tumor MPNST cell line growth inhibition [Asc];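 further: compounds left on spheroids for seven days before reading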
Settings: for IC50: curve of first compound; for viability, T/C: stronger effect = lower value
How it was run: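 Tumor cells were grown as complex spheroids with human endothelial cells (HUVEC) and human mesenchymal stem cells as stroma. Agents were tested alone and in combination, in half-log steps down from the clinical Cmax, or from 10 microM where Cmax was unknown.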

[1] = second compound 0.00316 µM, first compound 0.00316 µM
[2] = second compound 0.00316 µM, first compound 0.01 µM
[3] = second compound 0.00316 µM, first compound 0.0316 µM
[4] = second compound 0.00316 µM, first compound 0.1 µM
[5] = second compound 0.00316 µM, first compound 0.316 µM
[6] = second compound 0.00316 µM, first compound 1 µM
[7] = second compound 0.01 µM, first compound 0.00316 µM
[8] = second compound 0.01 µM, first compound 0.01 µM
[9] = second compound 0.01 µM, first compound 0.0316 µM
[10] = second compound 0.01 µM, first compound 0.1 µM
[11] = second compound 0.01 µM, first compound 0.316 µM
[12] = second compound 0.01 µM, first compound 1 µM
[13] = second compound 0.0316 µM, first compound 0.00316 µM
[14] = second compound 0.0316 µM, first compound 0.01 µM
[15] = second compound 0.0316 µM, first compound 0.0316 µM
[16] = second compound 0.0316 µM, first compound 0.1 µM
[17] = second compound 0.0316 µM, first compound 0.316 µM
[18] = second compound 0.0316 µM, first compound 1 µM
[19] = second compound 0.1 µM, first compound 0.00316 µM
[20] = second compound 0.1 µM, first compound 0.01 µM
[21] = second compound 0.1 µM, first compound 0.0316 µM
[22] = second compound 0.1 µM, first compound 0.1 µM
[23] = second compound 0.1 µM, first compound 0.316 µM
[24] = second compound 0.1 µM, first compound 1 µM
[25] = second compound 0.316 µM, first compound 0.00316 µM
[26] = second compound 0.316 µM, first compound 0.01 µM
[27] = second compound 0.316 µM, first compound 0.0316 µM
[28] = second compound 0.316 µM, first compound 0.1 µM
[29] = second compound 0.316 µM, first compound 0.316 µM
[30] = second compound 0.316 µM, first compound 1 µM
[31] = second compound 1 µM, first compound 0.00316 µM
[32] = second compound 1 µM, first compound 0.01 µM
[33] = second compound 1 µM, first compound 0.0316 µM
[34] = second compound 1 µM, first compound 0.1 µM
[35] = second compound 1 µM, first compound 0.316 µM
[36] = second compound 1 µM, first compound 1 µM

Compound: CCN1CCN(Cc2ccc(Nc3ncc(F)c(-c4cc(F)c5nc(C)n(C(C)C)c5c4)n3)nc2)CC1 + CNC(C)C(=O)NC1CN(S(=O)(=O)c2cccc(S(=O)(=O)N3CCC4CCC(C(=O)NC(c5ccccc5)c5ccccc5)N4C(=O)C(NC(=O)C(C)NC)C3)c2)CCC2CCC(C(=O)NC(c3ccccc3)c3ccccc3)N2C1=O
- IC50 (second compound 0.00316 µM): > 1000 nM
- IC50 (second compound 0.01 µM): > 1000 nM
- IC50 (second compound 0.0316 µM): > 1000 nM
- IC50 (second compound 0.1 µM): > 1000 nM
- IC50 (second compound 0.316 µM): > 1000 nM
- IC50 (second compound 1 µM): > 1000 nM
- viability, T/C [1]: 80.7%
- viability, T/C [2]: 58.2%
- viability, T/C [3]: 58.9%
- viability, T/C [4]: 56.2%
- viability, T/C [5]: 51.9%
- viability, T/C [6]: 57.2%
- viability, T/C [7]: 141%
- viability, T/C [8]: 83.2%
- viability, T/C [9]: 102%
- viability, T/C [10]: 71.8%
- viability, T/C [11]: 61.2%
- viability, T/C [12]: 73%
- viability, T/C [13]: 94.5%
- viability, T/C [14]: 92.9%
- viability, T/C [15]: 106%
- viability, T/C [16]: 66.5%
- viability, T/C [17]: 72.5%
- viability, T/C [18]: 87.1%
- viability, T/C [19]: 79.7%
- viability, T/C [20]: 74.2%
- viability, T/C [21]: 75.3%
- viability, T/C [22]: 61.7%
- viability, T/C [23]: 60.7%
- viability, T/C [24]: 82.7%
- viability, T/C [25]: 86.5%
- viability, T/C [26]: 69.8%
- viability, T/C [27]: 106%
- viability, T/C [28]: 104%
- viability, T/C [29]: 71.9%
- viability, T/C [30]: 76.7%
- viability, T/C [31]: 66.6%
- viability, T/C [32]: 83%
- viability, T/C [33]: 66.4%
- viability, T/C [34]: 61.4%
- viability, T/C [35]: 73.9%
- viability, T/C [36]: 68.7%

Compound: Cn1ncnc1[C@H]1c2n[nH]c(=O)c3cc(F)cc(c23)N[C@@H]1c1ccc(F)cc1 + CNC(C)C(=O)NC1CN(S(=O)(=O)c2cccc(S(=O)(=O)N3CCC4CCC(C(=O)NC(c5ccccc5)c5ccccc5)N4C(=O)C(NC(=O)C(C)NC)C3)c2)CCC2CCC(C(=O)NC(c3ccccc3)c3ccccc3)N2C1=O
- IC50 (second compound 0.00316 µM): < 0.316 nM
- IC50 (second compound 0.01 µM): 1.09 nM
- IC50 (second compound 0.0316 µM): 23.2 nM
- IC50 (second compound 0.1 µM): 82.1 nM
- IC50 (second compound 0.316 µM): 26.7 nM
- IC50 (second compound 1 µM): 96.7 nM
- viability, T/C (second compound 0.00316 µM, first compound 0.000316 µM): 12.2%
- viability, T/C (second compound 0.00316 µM, first compound 0.001 µM): 11.4%
- viability, T/C [1]: 10.4%
- viability, T/C [2]: 11.5%
- viability, T/C [3]: 11.3%
- viability, T/C [4]: 10.7%
- viability, T/C (second compound 0.01 µM, first compound 0.000316 µM): 58.8%
- viability, T/C (second compound 0.01 µM, first compound 0.001 µM): 46.2%
- viability, T/C [7]: 50.8%
- viability, T/C [8]: 37.4%
- viability, T/C [9]: 32.5%
- viability, T/C [10]: 34.8%
- viability, T/C (second compound 0.0316 µM, first compound 0.000316 µM): 77.7%
- viability, T/C (second compound 0.0316 µM, first compound 0.001 µM): 73.9%
- viability, T/C [13]: 73.6%
- viability, T/C [14]: 65.4%
- viability, T/C [15]: 43.5%
- viability, T/C [16]: 45.2%
- viability, T/C (second compound 0.1 µM, first compound 0.000316 µM): 90.3%
- viability, T/C (second compound 0.1 µM, first compound 0.001 µM): 64.1%
- viability, T/C [19]: 70.6%
- viability, T/C [20]: 74.7%
- viability, T/C [21]: 61.1%
- viability, T/C [22]: 46.4%
- viability, T/C (second compound 0.316 µM, first compound 0.000316 µM): 76.2%
- viability, T/C (second compound 0.316 µM, first compound 0.001 µM): 62.5%
- viability, T/C [25]: 88.4%
- viability, T/C [26]: 57.5%
- viability, T/C [27]: 51.3%
- viability, T/C [28]: 46.1%
- viability, T/C (second compound 1 µM, first compound 0.000316 µM): 51.3%
- viability, T/C (second compound 1 µM, first compound 0.001 µM): 68.3%
- viability, T/C [31]: 49.5%
- viability, T/C [32]: 73.9%
- viability, T/C [33]: 53.9%
- viability, T/C [34]: 50.1%

Compound: O=C(c1cc(Cc2n[nH]c(=O)c3ccccc23)ccc1F)N1CCN(C(=O)C2CC2)CC1 + CNC(C)C(=O)NC1CN(S(=O)(=O)c2cccc(S(=O)(=O)N3CCC4CCC(C(=O)NC(c5ccccc5)c5ccccc5)N4C(=O)C(NC(=O)C(C)NC)C3)c2)CCC2CCC(C(=O)NC(c3ccccc3)c3ccccc3)N2C1=O
- IC50 (second compound 0.00316 µM): < 31.6 nM
- IC50 (second compound 0.01 µM): < 31.6 nM
- IC50 (second compound 0.0316 µM): 2010 nM
- IC50 (second compound 0.1 µM): 2460 nM
- IC50 (second compound 0.316 µM): 2510 nM
- IC50 (second compound 1 µM): 3390 nM
- viability, T/C [3]: 12.7%
- viability, T/C [4]: 10.7%
- viability, T/C [5]: 13.4%
- viability, T/C [6]: 12.9%
- viability, T/C (second compound 0.00316 µM, first compound 3.16 µM): 12.1%
- viability, T/C (second compound 0.00316 µM, first compound 10 µM): 13.7%
- viability, T/C [9]: 41%
- viability, T/C [10]: 36.8%
- viability, T/C [11]: 50.4%
- viability, T/C [12]: 44.6%
- viability, T/C (second compound 0.01 µM, first compound 3.16 µM): 26.4%
- viability, T/C (second compound 0.01 µM, first compound 10 µM): 27.4%
- viability, T/C [15]: 76.2%
- viability, T/C [16]: 65.6%
- viability, T/C [17]: 59.9%
- viability, T/C [18]: 64.3%
- viability, T/C (second compound 0.0316 µM, first compound 3.16 µM): 40.4%
- viability, T/C (second compound 0.0316 µM, first compound 10 µM): 37.7%
- viability, T/C [21]: 76.5%
- viability, T/C [22]: 85%
- viability, T/C [23]: 82.4%
- viability, T/C [24]: 79.8%
- viability, T/C (second compound 0.1 µM, first compound 3.16 µM): 41.8%
- viability, T/C (second compound 0.1 µM, first compound 10 µM): 38.8%
- viability, T/C [27]: 100%
- viability, T/C [28]: 66%
- viability, T/C [29]: 84.7%
- viability, T/C [30]: 81.3%
- viability, T/C (second compound 0.316 µM, first compound 3.16 µM): 41.8%
- viability, T/C (second compound 0.316 µM, first compound 10 µM): 42.4%
- viability, T/C [33]: 75.8%
- viability, T/C [34]: 63.4%
- viability, T/C [35]: 60%
- viability, T/C [36]: 68.2%
- viability, T/C (second compound 1 µM, first compound 3.16 µM): 45.3%
- viability, T/C (second compound 1 µM, first compound 10 µM): 42%

Compound: O=C(c1ccc(F)c(F)c1Nc1ccc(I)cc1F)N1CC(O)([C@@H]2CCCCN2)C1 + CNC(C)C(=O)NC1CN(S(=O)(=O)c2cccc(S(=O)(=O)N3CCC4CCC(C(=O)NC(c5ccccc5)c5ccccc5)N4C(=O)C(NC(=O)C(C)NC)C3)c2)CCC2CCC(C(=O)NC(c3ccccc3)c3ccccc3)N2C1=O
- IC50 (second compound 0.00316 µM): 472 nM
- IC50 (second compound 0.01 µM): 781 nM
- IC50 (second compound 0.0316 µM): 858 nM
- IC50 (second compound 0.1 µM): 922 nM
- IC50 (second compound 0.316 µM): 868 nM
- IC50 (second compound 1 µM): 892 nM
- viability, T/C [1]: 71%
- viability, T/C [2]: 46.5%
- viability, T/C [3]: 82.4%
- viability, T/C [4]: 65.1%
- viability, T/C [5]: 66.1%
- viability, T/C [6]: 19.9%
- viability, T/C [7]: 107%
- viability, T/C [8]: 103%
- viability, T/C [9]: 131%
- viability, T/C [10]: 134%
- viability, T/C [11]: 108%
- viability, T/C [12]: 34.2%
- viability, T/C [13]: 108%
- viability, T/C [14]: 88.7%
- viability, T/C [15]: 110%
- viability, T/C [16]: 126%
- viability, T/C [17]: 77.6%
- viability, T/C [18]: 45.8%
- viability, T/C [19]: 86.9%
- viability, T/C [20]: 89.1%
- viability, T/C [21]: 81.6%
- viability, T/C [22]: 90.5%
- viability, T/C [23]: 97.2%
- viability, T/C [24]: 47%
- viability, T/C [25]: 69.7%
- viability, T/C [26]: 67.3%
- viability, T/C [27]: 65.5%
- viability, T/C [28]: 134%
- viability, T/C [29]: 87.7%
- viability, T/C [30]: 45%
- viability, T/C [31]: 70.1%
- viability, T/C [32]: 80.1%
- viability, T/C [33]: 105%
- viability, T/C [34]: 113%
- viability, T/C [35]: 96%
- viability, T/C [36]: 45.2%
